# Test results taken from US20140206681A1, “BTK INHIBITORS” (priority 2013, published 2014).
# Where two headings read alike, the source gives them in different places.
# Assays:
# HeLa cells = test: [3H]Adenosine uptake functional cellular assay; format: cell-based; settings: accumulation of [3H]adenosine into HeLa cells, compound range 10 μM to […], read-out: Adenosine uptake inhibition IC50
# Description: Compounds are also screened in an adenosine uptake functional cellular assay using the protocol described below. The adenosine uptake inhibition assay may be used to identify compounds with the potential for a negative cardiovascular side effect.
# Adenosine uptake activity was determined by monitoring the accumulation of tritiated adenosine into HeLa cells (ATCC catalog # CCL-2) using a PMT-based radiometric detection instrument. […] These cells were incubated overnight at 37° C. in a humidified atmosphere with 5% (v/v) CO2. After this time the growth medium was removed and replaced with 40 μL assay medium comprising: Hanks balanced salts solution (HBSS; Thermo Fisher Catalog # SH30268.01)+5% (v/v) FBS. […] 40 μL of compound in the assay medium was dispensed into individual wells of the Cytostar-T plates and the plates were incubated for 30 minutes under ambient laboratory conditions. Following this incubation, 20 μL of 500 nM [^3H]adenosine (American Radiolabeled Chemicals Inc. Catalog # ART0287) was added in the assay medium and incubated for a further 60 minutes under ambient laboratory conditions. The amount of radiolabel accumulation was then determined using a Perkin Elmer Topcount NXT microplate reader. In brief, HeLa cells adhere to the bottom of the Cytostar-T plate, uptake of [^3H]adenosine into these cells brings the radiolabel into sufficient proximity to excite the scintillant in the base of the plates. These events are captured by single PMT, time-resolved coincidence counting. IC50 values were determined by 4 parameter robust fit of counts per second values vs. (Log10) compound concentrations.
# [1] = biological target: T1, BTK enzyme (recombinant full-length BTK, hBTK) (Homo sapiens, UniProt Q06187); test: BTK enzyme activity assay, LANCE TR-FRET; format: biochemical; settings: 50 pM hBTK, 2 μM biotin-A5-peptide, 25 μM ATP; 60 min compound & enzyme incubation; read-out: IC50 BTK activity value
# T1 construct: recombinant protein from baculovirus-transfected Sf9 cells: full-length BTK, 6HIS-tag cleaved; 6HIS (cleaved yes); made in house; host or cells: baculovirus-transfected Sf9 cells
# T1 sequence (Q06187 whole entry): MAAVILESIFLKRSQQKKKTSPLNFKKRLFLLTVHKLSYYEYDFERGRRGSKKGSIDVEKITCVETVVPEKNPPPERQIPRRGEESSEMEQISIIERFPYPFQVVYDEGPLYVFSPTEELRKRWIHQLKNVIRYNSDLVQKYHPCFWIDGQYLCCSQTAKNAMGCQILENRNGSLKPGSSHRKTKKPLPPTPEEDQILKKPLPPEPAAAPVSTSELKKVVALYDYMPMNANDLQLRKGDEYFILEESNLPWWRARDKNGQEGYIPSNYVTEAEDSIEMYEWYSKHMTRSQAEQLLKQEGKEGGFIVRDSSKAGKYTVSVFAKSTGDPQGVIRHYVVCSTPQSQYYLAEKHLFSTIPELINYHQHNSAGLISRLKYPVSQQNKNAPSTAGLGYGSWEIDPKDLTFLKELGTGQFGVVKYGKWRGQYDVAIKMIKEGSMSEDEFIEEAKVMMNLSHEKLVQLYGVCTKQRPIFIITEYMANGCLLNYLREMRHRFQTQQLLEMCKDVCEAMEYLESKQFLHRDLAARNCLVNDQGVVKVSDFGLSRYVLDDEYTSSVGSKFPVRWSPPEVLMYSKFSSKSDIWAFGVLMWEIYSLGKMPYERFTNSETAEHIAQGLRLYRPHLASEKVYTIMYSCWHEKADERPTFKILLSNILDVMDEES
IC50 (HeLa cells),IC50 [1],"IC50 (HeLa cells; Homo sapiens, HeLa)",Molecule
7090 nM,1.9 nM,–,"4-(8-amino-3-((6R,8aS)-3-oxooctahydroindolizin-6-yl)imidazo[1,5-a]pyrazin-1-yl)-3-(2-methoxyethoxy)-N-(4-(trifluoromethyl)pyridin-2-yl)benzamide [Example 199]"
–,0.058 nM,71.7 nM,"CC1CC(=O)N2C[C@H](c3nc(-c4ccc(C(=O)Nc5cc(C(F)(F)F)ccn5)cc4)c4c(N)nccn34)CC[C@H]12 (stereo in doubt) [Example 63, 4-{8-amino-3-[(1S,6R,8aR)-1-methyl-3-oxooctahydroindolizin-6-yl]imidazo[1,5-a]pyrazin-1-yl}-N-[4-(trifluoromethyl)pyridin-2-yl]benzamide]"
–,0.085 nM,132 nM,"CC1CC(=O)N2C[C@H](c3nc(-c4ccc(C(=O)Nc5cc(C(F)(F)F)ccn5)cc4)c4c(N)nccn34)CC[C@@H]12 (stereo in doubt) [Example 65, 4-{8-amino-3-[(1R,6R,8aS)-1-methyl-3-oxooctahydroindolizin-6-yl]imidazo[1,5-a]pyrazin-1-yl}-N-[4-(trifluoromethyl)pyridin-2-yl]benzamide]"
–,7.2 nM,792 nM,"CN1C[C@@H]2CC[C@@H](c3nc(-c4ccc(C(=O)Nc5cc(C(F)(F)F)ccn5)cc4)c4c(N)nccn34)CN2C1=O [Example 3, 4-(8-amino-3-((6R,8aS)-2-methyl-3-oxooctahydroimidazo[1,5-a]pyridin-6-yl)imidazo[1,5-a]pyrazin-1-yl)-N-(4-(trifluoromethyl)pyridin-2-yl)benzamide]"
–,0.1 nM,61.9 nM,"Nc1nccn2c([C@@H]3CC[C@H]4CCC(=O)N4C3)nc(-c3ccc(C(=O)Nc4cc(C(F)(F)F)ccn4)cc3)c12 [Example 4, 4-(8-amino-3-((6R,8aS)-3-oxooctahydroindolizin-6-yl)imidazo[1,5-a]pyrazin-1-yl)-N-(4-(trifluoromethyl)pyridin-2-yl)benzamide]"
–,2 nM,184 nM,"Nc1nccn2c([C@@H]3CC[C@H]4CCC(=O)N4C3)nc(-c3ccc(C(=O)Nc4ccccn4)cc3)c12 [Example 6, 4-(8-amino-3-((6R,8aS)-3-oxooctahydroindolizin-6-yl)imidazo[1,5-a]pyrazin-1-yl)-N-(pyridin-2-yl)benzamide]"
–,2.2 nM,355 nM,"Cc1cnc(NC(=O)c2ccc(-c3nc([C@@H]4CC[C@H]5CCC(=O)N5C4)n4ccnc(N)c34)cc2)s1 [Example 8, 4-(8-amino-3-((6R,8aS)-3-oxooctahydroindolizin-6-yl)imidazo[1,5-a]pyrazin-1-yl)-N-(5-methylthiazol-2-yl)benzamide]"
–,194 nM,287 nM,"Nc1nccn2c([C@H]3CC[C@@H]4CCC(=O)N4C3)nc(-c3ccc(C(=O)Nc4ccccn4)cc3)c12 [Example 9, 4-(8-amino-3-((6S,8aR)-3-oxooctahydroindolizin-6-yl)imidazo[1,5-a]pyrazin-1-yl)-N-(pyridin-2-yl)benzamide]"
–,14.7 nM,1340 nM,"Nc1nccn2c([C@H]3CC[C@H]4CCC(=O)N4C3)nc(-c3ccc(C(=O)Nc4cc(C(F)(F)F)ccn4)cc3)c12 [Example 10, 4-(8-amino-3-((6S,8aS)-3-oxooctahydroindolizin-6-yl)imidazo[1,5-a]pyrazin-1-yl)-N-(4-(trifluoromethyl)pyridin-2-yl)benzamide]"
–,15.3 nM,511 nM,"Nc1nccn2c([C@@H]3CC[C@@H]4CCC(=O)N4C3)nc(-c3ccc(C(=O)Nc4cc(C(F)(F)F)ccn4)cc3)c12 [Example 11, 4-(8-amino-3-((6R,8aR)-3-oxooctahydroindolizin-6-yl)imidazo[1,5-a]pyrazin-1-yl)-N-(4-(trifluoromethyl)pyridin-2-yl)benzamide]"
–,0.21 nM,71.9 nM,"N#Cc1ccnc(NC(=O)c2ccc(-c3nc([C@@H]4CC[C@H]5CCC(=O)N5C4)n4ccnc(N)c34)c(F)c2)c1 [Example 15, 4-{8-amino-3-[(6R,8aS)-3-oxooctahydroindolizin-6-yl]imidazo[1,5-a]pyrazin-1-yl}-N-(4-cyanopyridin-2-yl)-3-fluorobenzamide]"
–,0.2 nM,75.1 nM,"Nc1nccn2c([C@@H]3CC[C@H]4CCC(=O)N4C3)nc(-c3ccc(C(=O)Nc4cc(C5CC5)ccn4)cc3F)c12 [Example 16, 4-{8-amino-3-[(6R,8aS)-3-oxooctahydroindolizin-6-yl]imidazo[1,5-a]pyrazin-1-yl}-N-(4-cyclopropylpyridin-2-yl)-3-fluorobenzamide]"
–,0.16 nM,63.5 nM,"CCc1ccnc(NC(=O)c2ccc(-c3nc([C@@H]4CC[C@H]5CCC(=O)N5C4)n4ccnc(N)c34)cc2)c1 [Example 18, 4-{8-amino-3-[(6R,8aS)-3-oxooctahydroindolizin-6-yl]imidazo[1,5-a]pyrazin-1-yl}-N-(4-ethylpyridin-2-yl)benzamide]"
–,0.18 nM,233 nM,"Nc1nccn2c([C@@H]3CC[C@H]4CCC(=O)N4C3)nc(-c3ccc(C(=O)Nc4cc(C5CC5)ccn4)cc3)c12 [Example 19, 4-{8-amino-3-[(6R,8aS)-3-oxooctahydroindolizin-6-yl]imidazo[1,5-a]pyrazin-1-yl}-N-(4-cyclopropylpyridin-2-yl)benzamide]"
–,2.2 nM,2380 nM,Nc1nccn2c([C@@H]3CC[C@H]4CCC(=O)N4C3)nc(-c3ccc(C(=O)Nc4nccc(C(F)(F)F)n4)cc3)c12 [Example 20]
–,0.21 nM,234 nM,"CC(F)(F)c1ccnc(NC(=O)c2ccc(-c3nc([C@@H]4CC[C@H]5CCC(=O)N5C4)n4ccnc(N)c34)c(F)c2)c1 [Example 21, 4-{8-amino-3-[(6R,8aS)-3-oxooctahydroindolizin-6-yl]imidazo[1,5-a]pyrazin-1-yl}-N-[4-(1,1-difluoroethyl)pyridin-2-yl]-3-fluorobenzamide]"
–,0.11 nM,4.13 nM,"Nc1nccn2c([C@@H]3CC[C@H]4CCC(=O)N4C3)nc(-c3ccc(C(=O)Nc4cc(C(F)(F)F)ccn4)cc3F)c12 [Example 23, 4-{8-amino-3-[(6R,8aS)-3-oxooctahydroindolizin-6-yl]imidazo[1,5-a]pyrazin-1-yl}-3-fluoro-N-[4-(trifluoromethyl)pyridin-2-yl]benzamide]"
–,–,124 nM,"CN1CC[C@@H]2CC[C@@H](c3nc(-c4ccc(C(=O)Nc5cc(C(F)(F)F)ccn5)cc4)c4c(N)nccn34)CN2C1=O [Example 83, 4-(8-amino-3-((4aS,7R)-2-methyl-1-oxooctahydro-1H-pyrido[1,2-c]pyrimidin-7-yl)imidazo[1,5-a]pyrazin-1-yl)-N-(4-(trifluoromethyl)pyridin-2-yl)benzamide]"
–,–,155 nM,"CN1CC[C@H]2CC[C@H](c3nc(-c4ccc(C(=O)Nc5cc(C(F)(F)F)ccn5)cc4)c4c(N)nccn34)CN2C1=O [Example 84, 4-(8-amino-3-((4aR,7S)-2-methyl-1-oxooctahydro-1H-pyrido[1,2-c]pyrimidin-7-yl)imidazo[1,5-a]pyrazin-1-yl)-N-(4-(trifluoromethyl)pyridin-2-yl)benzamide]"
–,–,699 nM,"COc1cc(C(=O)Nc2cc(C(F)(F)F)ccn2)ccc1-c1nc([C@@H]2CC[C@H]3CCC(=O)N3C2)n2ccnc(N)c12 [Example 88, 4-(8-amino-3-((6R,8aS)-3-oxooctahydroindolizin-6-yl)imidazo[1,5-a]pyrazin-1-yl)-3-methoxy-N-(4-(trifluoromethyl)pyridin-2-yl)benzamide]"
–,155 nM,–,"CCOC(=O)c1oc(NC(=O)c2ccc(-c3nc([C@@H]4CC[C@H]5CCC(=O)N5C4)n4ccnc(N)c34)cc2)nc1C(F)(F)F [Example 184, ethyl 2-{[(4-{8-amino-3-[(6R,8aS)-3-oxooctahydroindolizin-6-yl]imidazol[1,5-a]pyrazin-1-yl}phenyl)carbonyl]amino}-4-(trifluoromethyl)-1,3-oxazole-5-carboxylate]"
–,6.9 nM,–,"Cc1cc(C(=O)Nc2cc(C(F)(F)F)n(C)n2)ccc1-c1nc([C@@H]2CC[C@H]3CCC(=O)N3C2)n2ccnc(N)c12 [Example 186, 4-{8-amino-3-[(6R,8aS)-3-oxooctahydroindolizin-6-yl]imidazo[1,5-a]pyrazin-1-yl}-3-methyl-N-[1-methyl-5-(trifluoromethyl)-1H-pyrazol-3-yl]benzamide]"
–,0.2 nM,–,"CCOc1cc(C(=O)Nc2cc(C(F)(F)F)ccn2)ccc1-c1nc([C@@H]2CC[C@@H]3N(C2)C(=O)CC3(C)C)n2ccnc(N)c12 [Example 222, 4-(8-amino-3-((6R,8aS)-1,1-dimethyl-3-oxooctahydroindolizin-6-yl)imidazo[1,5-a]pyrazin-1-yl)-3-ethoxy-N-(4-(trifluoromethyl)pyridin-2-yl)benzamide]"
